Measured values published in patent US20100160369A1, “S1P1 Agonists and Methods of Making And Using” (EXELIXIS, INC., priority 2008, published 2010).

How the values were obtained:
[1] = molecular target: T1, S1P1 (Homo sapiens, UniProt P21453); experiment: Tango β-arrestin Recruitment Assay in HEK293 cells (Assay 2a); type: cell-based; parameters: linker with TEV protease (N1a) cleavage site (C); host or cells: HEK293, transiently transfected
Description: For the Tango™ β-arrestin recruitment assay, the cytoplasmic C-terminus of S1P1 is tethered to the tTA transcriptional activator with a linker that contains a cleavage site for the N1a protease from tobacco etch virus (TEV protease). The C-terminus of the human β-arrestin2 protein is fused to TEV protease. Binding of an agonist recruits the β-arrestin-TEV fusion protein to the receptor resulting in cleavage of the linker and release of tTA to enter the nucleus and subsequently activate a tTA-dependent luciferase reporter gene.
Frozen HEK293 cells transiently transfected with receptor cDNAs for S1P1 (Invitrogen) were thawed and suspended in 10 mL of Pro293a-CDM culture medium (Invitrogen) supplemented with 4 mM L-Glutamine (Invitrogen), 1× Pen/Strep (100 units/mL penicillin and 100 μg/mL streptomycin, Invitrogen) and 0.1% fatty acid free BSA (Sigma-Aldrich). Cells were added to the wells of a 384-well white opaque bottom assay plate (PerkinElmer) at 3,000-6,000 cells per well and the plate was incubated for approximately 4 h in a 37° C. incubator. Test compounds were tested at maximum concentrations of 10 μM for the agonist assays. Compounds were diluted in DMSO (10 concentration points, 3-fold each) and added to the assay plate at a 1% final DMSO concentration. For each compound, there were duplicate assay plates and each assay plate had duplicate wells per concentration point. The plate was incubated at 37° C. for 30 min. The efficacy control was 5 μM S1P (Avanti). Following agonist addition, the assay plates were incubated in a 37° C. incubator for 16-18 h. Luciferase assay reagent was added and luminescence measured in an EnVision plate reader (PerkinElmer). To determine agonist activity, percent activity was calculated as [(test compound−background)/(positive control−background)* 100], where background is the luminescence of the DMSO alone control and the positive control is the luminescence from cells incubated with the efficacy control 5 μM S1P. The percent activities were plotted against compound concentration to determine EC50 using XLFit (IDBS).
Assay 1 is the CNG cAMP Assay as described in Biological Example 1. Assay 2a and 2b are the Tango™ β-arrestin Recruitment Assay in HEK293 and U2OS cells, respectively, as described in Biological Example 2. Assay 3a is the hS1P1R GTPγS Binding Assay as described in Biological Example 3. Assay 3b is the GTP-Eu Binding Assay as described in Biological Example 3. EC50's were measured unless otherwise noted. […] In the table, “nt” means the Compound was not tested and “no” means the compound was tested but had no measurable activity under the assay conditions employed.
Target sequence in this assay (P21453 whole entry, the tested form may be a part): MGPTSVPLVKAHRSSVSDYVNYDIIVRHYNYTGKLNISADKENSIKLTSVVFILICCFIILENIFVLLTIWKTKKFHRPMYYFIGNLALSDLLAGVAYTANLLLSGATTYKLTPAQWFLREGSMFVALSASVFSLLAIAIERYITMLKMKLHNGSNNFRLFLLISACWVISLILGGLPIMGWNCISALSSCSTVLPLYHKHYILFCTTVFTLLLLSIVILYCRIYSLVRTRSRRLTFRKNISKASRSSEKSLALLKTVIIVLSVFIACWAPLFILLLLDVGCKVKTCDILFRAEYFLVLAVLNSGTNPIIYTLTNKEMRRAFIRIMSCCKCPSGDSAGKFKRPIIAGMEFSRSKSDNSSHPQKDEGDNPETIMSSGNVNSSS
Target sequence in this assay (P32121 whole entry partner, the tested form may be a part): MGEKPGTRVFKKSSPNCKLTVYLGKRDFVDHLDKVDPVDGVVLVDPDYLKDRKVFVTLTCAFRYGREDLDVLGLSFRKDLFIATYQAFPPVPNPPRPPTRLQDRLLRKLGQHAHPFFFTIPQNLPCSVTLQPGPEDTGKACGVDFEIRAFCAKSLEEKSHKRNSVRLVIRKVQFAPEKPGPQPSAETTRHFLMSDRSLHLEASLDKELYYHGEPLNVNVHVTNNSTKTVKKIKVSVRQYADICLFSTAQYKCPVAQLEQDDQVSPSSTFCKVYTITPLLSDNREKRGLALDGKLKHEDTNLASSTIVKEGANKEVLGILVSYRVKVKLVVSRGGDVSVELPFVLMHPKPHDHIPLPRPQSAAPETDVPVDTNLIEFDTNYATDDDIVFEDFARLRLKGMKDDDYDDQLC

[2] = molecular target: T1, S1P1; experiment: CNG cAMP Assay (Assay 1); type: cell-based; parameters: host or cells: HEK293 cells expressing the CNG channel
Outline: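 cAMP-gated CNG membrane-potential read-out (350/590 nm, T90/T0 ratio) in S1P1/CNG HEK293 cells after 90 min with compound plus NECA 500 nM, S1P 10 nM (EC95), Ro 20-1724 25 μM. Ten 3-fold points from 10 μM, 1.8% DMSO; percent activity vs NECA-only control gives EC50.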
Target sequence in this assay (P21453 whole entry, the tested form may be a part): as the sequence (P21453 whole entry, the tested form may be a part) above

[3] = Tango β-arrestin Recruitment Assay, read-out: Assay 2a EC50
[4] = Tango β-arrestin, footnote 1: Relative EC50 was measured, read-out: Assay 2a Relative EC50
[5] = footnote 1: Relative EC50 was measured, read-out: Assay 1 Relative EC50

Compound | EC50 [1, 3] [nM] | EC50 ([2]; read-out: Assay 1 EC50) [nM] | further results
O=C(O)/C=C/c1ccc(-c2noc(-c3cn4cc(C(F)(F)F)cc(Cl)c4n3)n2)c(Cl)c1 [Entry 3] | 100 to 500 | ≤ 100 | 
O=C(O)CCc1ccc(-c2noc(-c3cn4cc(C(F)(F)F)cc(Cl)c4n3)n2)c(F)c1 [Entry 19] | 100 to 500 | ≤ 100 | 
NC(=O)CCc1ccc(-c2noc(-c3cn4cc(C(F)(F)F)cc(Cl)c4n3)n2)c(Cl)c1 [Entry 20] | ≤ 100 | ≤ 100 | 
Cc1cc(Br)c2nc(-c3nc(-c4cc(F)c(CCC(=O)O)cc4Cl)no3)cn2c1 [Entry 25] | ≤ 100 | ≤ 100 | 
Cc1cc(Cl)c2nc(-c3nc(-c4cc(F)c(CCC(=O)O)cc4Cl)no3)cn2c1 [Entry 28] | ≤ 100 | ≤ 100 | 
O=C(O)CCc1cc(Cl)c(-c2noc(-c3cn4cc(I)ccc4n3)n2)cc1F [Entry 31] | ≤ 100 | ≤ 100 | 
O=C(O)CCc1cc(Cl)c(-c2noc(-c3cn4cc([N+](=O)[O-])cc(Cl)c4n3)n2)cc1F [Entry 36] | 100 to 500 | ≤ 100 | 
N#Cc1cc(Br)c2nc(-c3nc(-c4cc(F)c(CCC(=O)O)cc4Cl)no3)cn2c1 [Entry 47] | 100 to 500 | ≤ 100 | 
O=C(O)C(O)COc1cc(Cl)c(-c2noc(-c3cn4cc(C(F)(F)F)cc(Cl)c4n3)n2)cc1Cl (stereo not drawn) [Entry 58] | ≤ 100 |  | 
Cc1ccc(Oc2cc(Cl)c3nc(-c4nc(-c5cc(F)c(CCC(=O)O)cc5Cl)no4)cn3c2)cc1 [Entry 67] | ≤ 100 |  | 
O=C(O)CCc1cc(Cl)c(-c2noc(-c3cn4cc(Br)cc(Br)c4n3)n2)cc1F [Entry 71] | ≤ 100 |  | 
COCCOc1cc(Cl)c(-c2noc(-c3cn4cc(C(F)(F)F)cc(Cl)c4n3)n2)cc1Cl [Entry 76] | ≤ 100 |  | 
CC(O)COc1c(Cl)cc(-c2noc(-c3cn4cc(C(F)(F)F)cc(Cl)c4n3)n2)cc1Cl (stereo not drawn) [Example 104, 1-[(2,6-dichloro-4-{5-[8-chloro-6-(trifluoromethyl)imidazo[1,2-a]pyridin-2-yl]-1,2,4-oxadiazol-3-yl}phenyl)oxy]propan-2-ol] | ≤ 100 |  | 
OC(CF)COc1cc(Cl)c(-c2noc(-c3cn4cc(C(F)(F)F)cc(Br)c4n3)n2)cc1Cl (stereo not drawn) [Example 110, 1-[(4-{5-[8-bromo-6-(trifluoromethyl)imidazo[1,2-a]pyridin-2-yl]-1,2,4-oxadiazol-3-yl}-2,5-dichlorophenyl)oxy]-3-fluoropropan-2-ol] | ≤ 100 |  | 
OCCNc1ccc(-c2noc(-c3cn4cc(C(F)(F)F)cc(Cl)c4n3)n2)c(Cl)c1 [Example 115, 2-[(3-chloro-4-{5-[8-chloro-6-(trifluoromethyl)imidazo[1,2-a]pyridin-2-yl]-1,2,4-oxadiazol-3-yl}phenyl)amino]ethanol] | ≤ 100 |  | 
OCCNCc1cc(Cl)c(-c2noc(-c3cn4cc(C(F)(F)F)cc(Cl)c4n3)n2)cc1Cl [Example 138, 2-{[(2,5-dichloro-4-{5-[8-chloro-6-(trifluoromethyl)imidazo[1,2-a]pyridin-2-yl]-1,2,4-oxadiazol-3-yl}phenyl)methyl]amino}ethanol] |  |  | EC50 [1, 4]: 100 to 500 nM

Compound | EC50 [1, 3] [nM] | EC50 ([2]; read-out: Assay 1 EC50) [nM] | further results
CC(Cc1cc(Cl)c(-c2noc(-c3cn4cc(C(F)(F)F)cc(Cl)c4n3)n2)cc1Cl)C(=O)O (stereo not drawn) [Example 190, 3-(2,5-dichloro-4-{5-[8-chloro-6-(trifluoromethyl)imidazo[1,2-a]pyridin-2-yl]-1,2,4-oxadiazol-3-yl}phenyl)-2-methylpropanoic acid] |  |  | EC50 [1, 4]: 100 to 500 nM
CC(Cc1cc(Cl)c(-c2noc(-c3cn4cc(C(F)(F)F)cc(Br)c4n3)n2)cc1Cl)C(=O)O (stereo not drawn) [Example 225, 3-(4-{5-[8-bromo-6-(trifluoromethyl)imidazo[1,2-a]pyridin-2-yl]-1,2,4-oxadiazol-3-yl}-2,5-dichlorophenyl)-2-methylpropanoic acid] |  |  | EC50 [1, 4]: 100 to 500 nM
CC(Cc1cc(Cl)c(-c2nc(-c3cn4cc(C(F)(F)F)cc(Cl)c4n3)no2)cc1Cl)C(=O)O (stereo not drawn) [Example 241, 3-(2,5-dichloro-4-{3-[8-chloro-6-(trifluoromethyl)imidazo[1,2-a]pyridin-2-yl]-1,2,4-oxadiazol-5-yl}phenyl)-2-methylpropanoic acid] | ≤ 100 |  | 
CS(=O)(=O)Nc1c(F)cc(-c2noc(-c3cn4cc(C(F)(F)F)cc(Cl)c4n3)n2)cc1Cl [Example 268, N-(2-chloro-4-{5-[8-chloro-6-(trifluoromethyl)imidazo[1,2-a]pyridin-2-yl]-1,2,4-oxadiazol-3-yl}-6-fluorophenyl)methane sulfonamide] |  | 500 to 1000 | 
CS(=O)(=O)Nc1ccc(-c2noc(-c3cn4cc(C#N)cc(Cl)c4n3)n2)c(Cl)c1 [Example 269, N-{3-chloro-4-[5-(8-chloro-6-cyanoimidazo[1,2-a]pyridin-2-yl)-1,2,4-oxadiazol-3-yl]phenyl}methanesulfonamide] |  |  | EC50 [2, 5]: 5000 to 10000 nM
Cc1cc(Cl)c2nc(-c3nc(-c4ccc(NS(C)(=O)=O)cc4Cl)no3)cn2c1 [Example 270, N-{3-chloro-4-[5-(8-chloro-6-methylimidazo[1,2-a]pyridin-2-yl)-1,2,4-oxadiazol-3-yl]phenyl}methanesulfonamide] |  |  | EC50 [2, 5]: 5000 to 10000 nM
O=c1[nH]c(Cc2ccc(-c3noc(-c4cn5cc(C(F)(F)F)cc(Cl)c5n4)n3)c(Cl)c2)no1 [Example 271, 3-[(3-chloro-4-{5-[8-chloro-6-(trifluoromethyl)imidazo[1,2-a]pyridin-2-yl]-1,2,4-oxadiazol-3-yl}phenyl)methyl]-1,2,4-oxadiazol-5(4H)-one] |  | 100 to 500 | 
FC(F)(F)c1cc(Cl)c2nc(-c3nc(-c4ccccc4Cl)no3)cn2c1 [Example 273, 8-chloro-2-[3-(2-chlorophenyl)-1,2,4-oxadiazol-5-yl]-6-(trifluoromethyl)imidazo[1,2-a]pyridine] |  | ≤ 100 | 
O=C(O)[C@@H]1C[C@H](Oc2ccc(-c3noc(-c4cn5cc(C(F)(F)F)cc(Cl)c5n4)n3)c(Cl)c2)CN1 [Example 276, (4S)-4-[(3-chloro-4-{5-[8-chloro-6-(trifluoromethyl)imidazo[1,2-a]pyridin-2-yl]-1,2,4-oxadiazol-3-yl}phenyl)oxy]-L-proline] |  | ≤ 100 | 
CC(=O)OCCOc1c(Cl)cc(-c2noc(-c3cn4cc(C(F)(F)F)cc(Cl)c4n3)n2)cc1Cl [Example 279, 2-[(2,6-dichloro-4-{5-[8-chloro-6-(trifluoromethyl)imidazo[1,2-a]pyridin-2-yl]-1,2,4-oxadiazol-3-yl}phenyl)oxy]ethyl acetate] | 100 to 500 |  | 
OCCOc1c(Cl)cc(-c2noc(-c3cn4cc(C(F)(F)F)cc(Cl)c4n3)n2)cc1Cl [Example 280, 2-[(2,6-dichloro-4-{5-[8-chloro-6-(trifluoromethyl)imidazo[1,2-a]pyridin-2-yl]-1,2,4-oxadiazol-3-yl}phenyl)oxy]ethanol] | ≤ 100 |  | 
Fc1ccc(-c2noc(-c3cn4cc(C(F)(F)F)cc(Br)c4n3)n2)c(Cl)c1 [Example 281, 8-bromo-2-[3-(2-chloro-4-fluorophenyl)-1,2,4-oxadiazol-5-yl]-6-(trifluoromethyl)imidazo[1,2-a]pyridine] |  | 100 to 500 | 
FC(F)(F)c1cc(Cl)c2nc(-c3nc(-c4cnccc4C(F)(F)F)no3)cn2c1 [Example 290, 8-chloro-6-(trifluoromethyl)-2-{3-[4-(trifluoromethyl)pyridin-3-yl]-1,2,4-oxadiazol-5-yl}imidazo[1,2-a]pyridine] |  | 1000 to 5000 | 
N#Cc1cc(C(F)(F)F)cn2cc(-c3nc(-c4ccc(F)cc4Cl)no3)nc12 [Example 291, 2-[3-(2-chloro-4-fluorophenyl)-1,2,4-oxadiazol-5-yl]-6-(trifluoromethyl)imidazo[1,2-a]pyridine-8-carbonitrile] |  | 100 to 500 | 
O=C(O)Cn1ccc2c(-c3noc(-c4cn5cc(C(F)(F)F)cc(Cl)c5n4)n3)cccc21 [Example 293, (4-{5-[8-chloro-6-(trifluoromethyl)imidazo[1,2-a]pyridin-2-yl]-1,2,4-oxadiazol-3-yl}-1H-indol-1-yl)acetic acid] |  | 500 to 1000 | 
